# Results from ChEMBL document CHEMBL4411258, “Novel natural compounds from endophytic fungi with anticancer activity” (Eur J Med Chem, 2018).
# How the values were obtained:
# PC-3 = assay: Cytotoxicity against human PC3 cells by MTT assay; assay type: functional, cell-based
# MCF7 [1] = assay: Cytotoxicity against human MCF7 cells by MTT assay; assay type: functional, cell-based
# HCT-15 = assay: Cytotoxicity against human HCT15 cells by MTT assay; assay type: functional, cell-based
# SK-LU-1 = assay: Cytotoxicity against human SKLU1 cells by MTT assay; assay type: functional, cell-based
# U-251 = assay: Cytotoxicity against human U251 cells by MTT assay; assay type: functional, cell-based
# K562 [2] = assay: Cytotoxicity against human K562 cells by trypan blue exclusion assay; assay type: functional, cell-based
# HL-60 [3] = assay: Cytotoxicity against human HL60 cells by trypan blue exclusion assay; assay type: functional, cell-based
# NCI-H187 = assay: Cytotoxicity against human NCI-H187 cells by resazurin microplate assay; assay type: functional, cell-based
# KB [4] = assay: Cytotoxicity against human KB cells by resazurin microplate assay; assay type: functional, cell-based
# A549 [5] = assay: Cytotoxicity against human A549 cells assessed as inhibition of cell growth at 40 uM by MTS assay; assay type: functional; conditions: read-out: GI
# HL-60 [6] = assay: Cytotoxicity against human HL60 cells assessed as inhibition of cell growth at 40 uM by MTS assay; assay type: functional; conditions: read-out: GI
# SMMC-7721 [7] = assay: Cytotoxicity against human SMMC7721 cells assessed as inhibition of cell growth at 40 uM by MTS assay; assay type: functional; conditions: read-out: GI
# SW480 [8] = assay: Cytotoxicity against human SW480 cells assessed as inhibition of cell growth at 40 uM by MTS assay; assay type: functional; conditions: read-out: GI
# MCF7 [9] = assay: Cytotoxicity against human MCF7 cells assessed as inhibition of cell growth at 40 uM by MTS assay; assay type: functional; conditions: read-out: GI
# A549 [10] = assay: Cytotoxicity against human A549 cells by MTT assay; assay type: functional, cell-based
# MOLT-3 = assay: Cytotoxicity against human MOLT3 cells by XTT assay; assay type: functional, cell-based
# HuCC-A1 = assay: Cytotoxicity against human HuCCa1 cells by MTT assay; assay type: functional, cell-based
# Bel-7402 = assay: Cytotoxicity against human Bel7402 cells after 48 hrs by MTT assay; assay type: functional, cell-based; conditions: Bel-7402, 48 h
# HeLa [11] = assay: Cytotoxicity against human HeLa cells after 48 hrs by MTT assay; assay type: functional, cell-based
# HL-60 [12] = assay: Cytotoxicity against human HL60 cells after 48 hrs by MTT assay; assay type: functional, cell-based; conditions: HL-60, 48 h
# [13] = Cytotoxicity against human KATO III cells after 72 hrs by MTT assay; assay type: functional, cell-based
# MCF7 [14] = assay: Cytotoxicity against human MCF7 cells by resazurin microplate assay; assay type: functional, cell-based
# Vero [15] = assay: Cytotoxicity against African green monkey Vero cells by resazurin microplate assay; assay type: cell-based; conditions: Chlorocebus sabaeus
# [16] = Antiproliferative activity against HUVEC assessed as growth inhibition; assay type: cell-based; conditions: human, HUVEC cells
# K562 [17] = assay: Antiproliferative activity against human K562 assessed as growth inhibition; assay type: functional
# Vero [18] = assay: Cytotoxicity against African green monkey Vero cells; assay type: cell-based; conditions: Chlorocebus sabaeus
# MCF7 [19] = assay: Cytotoxicity against human MCF7 cells after 48 hrs by MTT assay; assay type: functional, cell-based; conditions: mcf7
# SMMC-7721 [20] = assay: Cytotoxicity against human SMMC7721 cells after 48 hrs by MTT assay; assay type: functional, cell-based; conditions: smmc-7721
# A549 [21] = assay: Cytotoxicity against human A549 cells after 48 hrs by MTT assay; assay type: functional, cell-based; conditions: a549
# [22] = Inhibition of TNFalpha-induced NFkappaB (unknown origin) activation expressed in HEK293 cells after 6 hrs by luciferase reporter gene based assay; assay type: cell-based; conditions: Homo sapiens, HEK293, 6 h
# PC-12 = assay: Cytotoxicity against rat PC12 cells by MTT assay; assay type: functional, cell-based
# L5178Y = assay: Cytotoxicity against mouse L5178Y cells by MTT assay; assay type: functional, cell-based
# HCT-116 = assay: Cytotoxicity against human HCT116 cells by MTT assay; assay type: functional, cell-based
# KB [23] = assay: Cytotoxicity against human KB cells by MTT assay; assay type: functional, cell-based
# MCF7 [24] = assay: Cytotoxicity against human MCF7 cells by CCK8 assay; assay type: functional, cell-based
# HL-60 [25] = assay: Cytotoxicity against human HL60 cells by CCK8 assay; assay type: functional, cell-based
# SW480 [26] = assay: Cytotoxicity against human SW480 cells by CCK8 assay; assay type: functional, cell-based
# SMMC-7721 [27] = assay: Cytotoxicity against human SMMC7721 cells by CCK8 assay; assay type: functional, cell-based
# A549 [28] = assay: Cytotoxicity against human A549 cells by CCK8 assay; assay type: functional, cell-based
# NCI-H460 = assay: Cytotoxicity against human NCI-H460 cells; assay type: functional, cell-based
# OVCAR-3 = assay: Cytotoxicity against human OVCAR3 cells assessed as reduction in cell viability after 72 hrs by CyQuant dye-based assay; assay type: functional; conditions: OVCAR-3, 72 h
# HeLa [29] = assay: Cytotoxicity against human HeLa cells by MTT assay; assay type: functional, cell-based
smiles,measurement,setting,value
COC(=O)[C@@]12Oc3c(c(O)cc4c3[C@@H]3CC[C@]5(C4)C(=C(O)c4c(O)cc(C)cc4[C@@H]5O)C3=O)C(=O)C1=C(O)C=C[C@H]2O,IC50,PC-3,8.62 µM
same,IC50,MCF7 [1],7.93 µM
same,IC50,HCT-15,10.3 µM
same,IC50,SK-LU-1,1.16 µM
same,IC50,U-251,5.32 µM
CCCCc1c(OC)cc(=O)oc1CO,IC50,K562 [2],0.9 µg/mL
same,IC50,HL-60 [3],0.45 µg/mL
COc1cc(=O)oc(C)c1CCC(C)=O,IC50,K562 [2],0.3 µg/mL
same,IC50,HL-60 [3],0.18 µg/mL
COc1cc2oc(C)cc(=O)c2c(O)c1CC(C)c1ccco1 (configuration not stated),IC50,NCI-H187,18 µg/mL
same,IC50,KB [4],43 µg/mL
C=C1[C@@H](C)[C@H]2[C@H](Cc3c[nH]c4ccccc34)NC(=O)[C@@]2(C(=O)CCC(=O)OC)[C@@H](/C=C/CC(C)/C=C(\C)C=O)[C@@H]1O (some centres not stated),inhibition of growth at 40 µM,A549 [5],67%
same,inhibition of growth at 40 µM,HL-60 [6],96%
same,inhibition of growth at 40 µM,SMMC-7721 [7],51%
same,inhibition of growth at 40 µM,SW480 [8],61%
same,inhibition of growth at 40 µM,MCF7 [9],58%
COCC1=C2C=C(C)OC=C2[C@H](O)[C@@](C)(O)C1=O,IC50,A549 [10],46.5 µg/mL
same,IC50,MOLT-3,17.4 µg/mL
same,IC50,HuCC-A1,48.1 µg/mL
COC(=O)[C@]1(OC)CCC(=O)N1Nc1ccc(OC)cc1OC,IC50,Bel-7402,8.1 µM
same,IC50,HeLa [11],15.5 µM
COc1ccc(O)c2c(=O)oc3cc(O)cc(C)c3c12,IC50,HL-60 [12],85 µM
C[C@H]1[C@@H](/C=C2\C=CC(=O)O2)[C@H]2C=CC=C[C@@H]1O2,IC50,[13],1.95 to 40.2 µg/mL
same,IC50,NCI-H187,1.95 to 40.2 µg/mL
same,IC50,MCF7 [14],1.95 to 40.2 µg/mL
same,IC50,Vero [15],1.95 to 40.2 µg/mL
O=C1c2cccc(O)c2[C@H]2C[C@@H]1c1ccc3cccc(O)c3c1O2,GI50,[16],98.4 µM
same,GI50,K562 [17],85.5 µM
C[C@H]1C/C=C/[C@H]2[C@@H]3O[C@]3(C)[C@@H](C)[C@H]3[C@H](Cc4ccc(O)cc4)NC(=O)[C@]32OC(=O)O/C=C/[C@@](C)(O)C1=O,IC50,Vero [18],1.19 µM
COc1cc(=O)oc2c1CO[C@@](C)(OC)[C@H]2C,IC50,MCF7 [19],17.7 µM
same,IC50,SMMC-7721 [20],35.1 µM
same,IC50,A549 [21],17.5 µM
CCCCC[C@@H]1OC2=C(C(=O)N(OC)C2C[S@+]([O-])C[C@@H](O)C(=O)O)[C@H](O)[C@@]1(C)O (some centres not stated),IC50,[22],1.5 µM
CCCCCCCCCCC[C@@H](C)[C@@H]1CC(=O)N[C@@H]([C@H](C)O)C(=O)N[C@@H](C)C(=O)N[C@H](C)C(=O)N[C@@H](CCC(N)=O)C(=O)N[C@H](Cc2ccc(O)cc2)C(=O)N[C@@H]([C@@H](C)CC)C(=O)O1,IC50,PC-12,9.55 µM
same,IC50,L5178Y,5.71 µM
CC1=C2[C@@H](O)C[C@@]2(C)[C@@H]2C[C@@H]3CC[C@@H](C)[C@@]2(CC1)C3(C)C,IC50,HCT-116,25 µM
same,IC50,KB [23],25 µM
C=C1[C@@H](C)[C@H]2[C@H](Cc3ccccc3)NC(=O)[C@]23C(=O)/C=C/C(=O)CCC[C@@H](C)C/C=C/[C@H]3[C@@H]1O,IC50,MCF7 [24],7.7 to 15.8 µM
same,IC50,HL-60 [25],7.7 to 15.8 µM
same,IC50,SW480 [26],7.7 to 15.8 µM
same,IC50,SMMC-7721 [27],7.7 to 15.8 µM
same,IC50,A549 [28],7.7 to 15.8 µM
C=CC1(C)c2[nH]c3cc4c(cc3c2C[C@H]2C(=O)N3CCC[C@H]3C(=O)N21)C=CC(C)(C)O4 (some centres not stated),IC50,NCI-H460,69.3 µM
CC1=CC[C@H]2C(C)(C)CCC[C@]2(C)[C@H]1C[C@@]12O[C@@H]1C(=O)C(CO)=C[C@H]2O,IC50,OVCAR-3,0.5 µM
CCCCc1c(OC)cc(=O)oc1C,IC50,HCT-116,45.1 µM
same,IC50,A549 [10],38.7 µM
same,IC50,HeLa [29],27 µM
